Assay results taken from ChEMBL document CHEMBL6096698, “Discovery of a Selective and Orally Bioavailable RET Degrader with Effectiveness in Various Mutations” (J Med Chem, 2025).
The source made the active and inactive calls. The rule behind the calls is not given here.

Assays:
[1] = target: Proto-oncogene tyrosine-protein kinase receptor Ret (Homo sapiens, UniProt P07949); experiment: Inhibition of RET (unknown origin) preincubated for 10 mins followed by substrate/ATP addition measured after 30 mins by HTRF assay
BaF3 [2] = experiment: Antiproliferative activity against mouse BaF3 cells stably expressing KIF5B-RET G810C mutant incubated for 72 hrs by CCK8 assay; format: functional, cell-based; conditions: BaF3, 72 h
BaF3 [3] = experiment: Antiproliferative activity against mouse BaF3 cells stably expressing KIF5B-RET G810S mutant incubated for 72 hrs by CCK8 assay; format: functional, cell-based; conditions: BaF3, 72 h
BaF3 [4] = experiment: Antiproliferative activity against mouse BaF3 cells stably expressing KIF5B-RET V804M mutant incubated for 72 hrs by CCK8 assay; format: functional, cell-based; conditions: BaF3, 72 h
BaF3 [5] = experiment: PROTAC activity at CRBN/KIF5B-RET (unknown origin) expressed in mouse BaF3 cells assessed as induction of RET degradation at 10 nM incubated for 24 hrs by immunoblot analysis relative to control; format: cell-based
BaF3 [6] = experiment: Antiproliferative activity against mouse BaF3 cells stably expressing KIF5B-RET G810R mutant incubated for 72 hrs by CCK8 assay; format: functional, cell-based; conditions: BaF3, 72 h
BaF3 [7] = experiment: Antiproliferative activity against mouse BaF3 cells stably expressing KIF5B-RET incubated for 72 hrs by CCK8 assay; format: functional, cell-based; conditions: BaF3, 72 h
[8] = Induction of apoptosis in mouse BaF3 cells stably expressing KIF5B-RET G810C mutant assessed as early apoptotic cells at 100 nM incubated for 48 hrs by Annexin V-FITC/PI staining based flow cytometry (reference value: 0.86 %); format: functional
[9] = Induction of apoptosis in mouse BaF3 cells stably expressing KIF5B-RET G810C mutant assessed as necrotic cells at 100 nM incubated for 48 hrs by Annexin V-FITC/PI staining based flow cytometry (reference value: 0.94 %); format: functional
BaF3 [10] = experiment: Induction of degradation of KIF5B-RET (unknown origin) expressed in mouse BaF3 cells at 10 nM incubated for 24 hrs by immunoblot analysis relative to control; format: cell-based; conditions: Homo sapiens
BaF3 [11] = experiment: Antiproliferative activity against mouse BaF3 cells stably expressing CCDC6-RET incubated for 72 hrs by CCK8 assay; format: functional, cell-based; conditions: BaF3, 72 h
BaF3 [12] = experiment: Antiproliferative activity against mouse BaF3 cells stably expressing CCDC6-RET V804M mutant incubated for 72 hrs by CCK8 assay; format: functional, cell-based; conditions: BaF3, 72 h
BaF3 [13] = experiment: Antiproliferative activity against mouse BaF3 cells stably expressing CCDC6-RET G810R mutant incubated for 72 hrs by CCK8 assay; format: functional, cell-based; conditions: BaF3, 72 h
[14] = Induction of apoptosis in mouse BaF3 cells stably expressing KIF5B-RET G810C mutant assessed as viable cells at 100 nM incubated for 48 hrs by Annexin V-FITC/PI staining based flow cytometry (reference value: 92.21 %); format: functional; conditions: read-out: Activity
[15] = Induction of apoptosis in mouse BaF3 cells stably expressing KIF5B-RET G810C mutant assessed as late apoptotic cells at 100 nM incubated for 48 hrs by Annexin V-FITC/PI staining based flow cytometry (reference value: 5.99 %); format: functional
BaF3 [16] = experiment: Antiproliferative activity against mouse BaF3 cells stably expressing CCDC6-RET G810C mutant incubated for 72 hrs by CCK8 assay; format: functional, cell-based; conditions: BaF3, 72 h
BaF3 [17] = experiment: PROTAC activity at CRBN/KIF5B-RET (unknown origin) expressed in mouse BaF3 cells assessed as induction of RET degradation at 10 nM incubated for 24 hrs by immunoblot analysis; format: cell-based

Chain of Proto-oncogene tyrosine-protein kinase receptor Ret (P07949 whole entry): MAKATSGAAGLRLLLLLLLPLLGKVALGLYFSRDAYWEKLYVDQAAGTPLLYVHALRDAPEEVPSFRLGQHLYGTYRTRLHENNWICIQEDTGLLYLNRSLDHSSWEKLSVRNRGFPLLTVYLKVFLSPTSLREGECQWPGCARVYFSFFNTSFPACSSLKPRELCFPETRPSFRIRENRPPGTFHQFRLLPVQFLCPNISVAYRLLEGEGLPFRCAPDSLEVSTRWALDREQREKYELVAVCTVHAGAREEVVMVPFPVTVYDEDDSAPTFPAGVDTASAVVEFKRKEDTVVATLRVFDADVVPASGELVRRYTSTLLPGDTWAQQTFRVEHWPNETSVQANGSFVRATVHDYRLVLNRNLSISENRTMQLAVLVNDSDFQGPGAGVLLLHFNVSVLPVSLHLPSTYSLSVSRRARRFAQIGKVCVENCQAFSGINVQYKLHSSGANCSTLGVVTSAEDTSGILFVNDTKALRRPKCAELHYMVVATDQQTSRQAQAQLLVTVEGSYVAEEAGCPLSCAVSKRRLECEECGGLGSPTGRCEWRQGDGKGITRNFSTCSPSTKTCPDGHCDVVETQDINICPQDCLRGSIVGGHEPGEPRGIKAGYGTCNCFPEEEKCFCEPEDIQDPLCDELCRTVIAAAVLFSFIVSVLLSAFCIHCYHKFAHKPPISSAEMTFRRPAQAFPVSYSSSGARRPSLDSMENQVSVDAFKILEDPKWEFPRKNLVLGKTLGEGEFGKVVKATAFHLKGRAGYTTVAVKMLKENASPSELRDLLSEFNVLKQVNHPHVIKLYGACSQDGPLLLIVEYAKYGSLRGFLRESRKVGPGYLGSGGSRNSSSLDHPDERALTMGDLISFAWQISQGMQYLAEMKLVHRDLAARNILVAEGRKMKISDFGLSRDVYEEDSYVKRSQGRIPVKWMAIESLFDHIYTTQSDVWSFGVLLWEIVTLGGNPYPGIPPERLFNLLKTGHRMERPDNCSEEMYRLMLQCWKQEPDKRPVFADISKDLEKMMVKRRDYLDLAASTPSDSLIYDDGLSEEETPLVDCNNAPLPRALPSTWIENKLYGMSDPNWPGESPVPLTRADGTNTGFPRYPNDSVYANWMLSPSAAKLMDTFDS

SMILES	IC50 [1] [nM]	IC50 (BaF3 [2]) [nM]	IC50 (BaF3 [3]) [nM]	IC50 (BaF3 [4]) [nM]	IC50 (BaF3 [6]) [nM]	IC50 (BaF3 [7]) [nM]	IC50 (BaF3 [11]) [nM]	IC50 (BaF3 [12]) [nM]	IC50 (BaF3 [13]) [nM]	IC50 (BaF3 [16]) [nM]	Activity (BaF3 [5]) [%]	Activity [8] [%]	Activity [9] [%]	Activity (BaF3 [10]) [%]	viability at 0.1 µM [14] [%]	Activity [15] [%]	Activity (BaF3 [17])
COc1ccc(CN2C3CC2CN(c2ccc(-c4cc(N5CCNCC5)cn5ncc(C#N)c45)cn2)C3)cn1	–	107	98.6	36.1	770	5.6	–	–	–	–	–	–	–	0	–	–	–
COc1ccc(CN2C3CC2CN(c2ccc(-c4cc(N5CCC(N6CCN(CCCC#Cc7cccc8c7CN(C7CCC(=O)N(C)C7=O)C8=O)CC6)CC5)cn5ncc(C#N)c45)cn2)C3)cn1 (stereo not given)	–	–	–	–	–	–	–	–	–	–	–	–	–	–	–	–	inactive
COc1ccc(CN2C3CC2CN(c2ccc(-c4cc(N5CCC(N6CCN(C(=O)CCCCCNc7cccc8c7C(=O)N(C7CCC(=O)NC7=O)C8=O)CC6)CC5)cn5ncc(C#N)c45)cn2)C3)cn1 (stereo not given)	0.329	50.4	53.6	5.2	376	1.8	–	–	–	–	72	–	–	–	–	–	–

Now from value to compound, other results behind:

IC50 [1] [nM]	IC50 (BaF3 [2]) [nM]	IC50 (BaF3 [3]) [nM]	IC50 (BaF3 [4]) [nM]	IC50 (BaF3 [6]) [nM]	IC50 (BaF3 [7]) [nM]	IC50 (BaF3 [11]) [nM]	IC50 (BaF3 [12]) [nM]	IC50 (BaF3 [13]) [nM]	IC50 (BaF3 [16]) [nM]	SMILES	Activity (BaF3 [5]) [%]	Activity [8] [%]	Activity [9] [%]	Activity (BaF3 [10]) [%]	viability at 0.1 µM [14] [%]	Activity [15] [%]	Activity (BaF3 [17])
0.276	149	76.1	11.3	513	2.5	–	–	–	–	COc1ccc(CN2C3CC2CN(c2ccc(-c4cc(N5CCC(N6CCN(C(=O)CCCNc7cccc8c7C(=O)N(C7CCC(=O)NC7=O)C8=O)CC6)CC5)cn5ncc(C#N)c45)cn2)C3)cn1 (stereo not given)	62	–	–	–	–	–	–
–	380	95.2	16.5	690	7.7	4.2	12.2	365	626	COc1ccc(CN2C3CC2CN(c2ccc(-c4cc(OCC(C)(C)O)cn5ncc(C#N)c45)cn2)C3)cn1 [SELPERCATINIB]	–	1.04	1.63	0	90.7	6.67	–
–	156	113	42.9	724	4.3	–	–	–	–	COc1ccc(CN2C3CC2CN(c2ccc(-c4cc(N5CCC(N6CCNCC6)CC5)cn5ncc(C#N)c45)cn2)C3)cn1	–	–	–	0	–	–	–
0.227	145	35.7	11.5	1030	1.9	–	–	–	–	COc1ccc(CN2C3CC2CN(c2ccc(-c4cc(N5CCN(CC6CN(c7ccc8c(c7)C(=O)N(C7CCC(=O)NC7=O)C8=O)C6)CC5)cn5ncc(C#N)c45)cn2)C3)cn1 (stereo not given)	72	–	–	–	–	–	–
0.215	322	52.6	8.1	1110	2.8	–	–	–	–	COc1ccc(CN2C3CC2CN(c2ccc(-c4cc(N5CCN(C6CN(c7ccc8c(c7)C(=O)N(C7CCC(=O)NC7=O)C8=O)C6)CC5)cn5ncc(C#N)c45)cn2)C3)cn1 (stereo not given)	71	–	–	–	–	–	–
